Data as given in ChEMBL document CHEMBL1201862, “PubChem BioAssay data set” (2004).
Active and inactive are the calls of the source.

Experiments:
DNA topoisomerase = molecular target: T1, DNA topoisomerase (Yersinia pestis, UniProt A0A2S9PM60); test: Yersinia topoisomerase I cleavage product accumulation – biochemical, cherry-pick, dose response (AID 588525)
T1 sequence (A0A2S9PM60 whole entry): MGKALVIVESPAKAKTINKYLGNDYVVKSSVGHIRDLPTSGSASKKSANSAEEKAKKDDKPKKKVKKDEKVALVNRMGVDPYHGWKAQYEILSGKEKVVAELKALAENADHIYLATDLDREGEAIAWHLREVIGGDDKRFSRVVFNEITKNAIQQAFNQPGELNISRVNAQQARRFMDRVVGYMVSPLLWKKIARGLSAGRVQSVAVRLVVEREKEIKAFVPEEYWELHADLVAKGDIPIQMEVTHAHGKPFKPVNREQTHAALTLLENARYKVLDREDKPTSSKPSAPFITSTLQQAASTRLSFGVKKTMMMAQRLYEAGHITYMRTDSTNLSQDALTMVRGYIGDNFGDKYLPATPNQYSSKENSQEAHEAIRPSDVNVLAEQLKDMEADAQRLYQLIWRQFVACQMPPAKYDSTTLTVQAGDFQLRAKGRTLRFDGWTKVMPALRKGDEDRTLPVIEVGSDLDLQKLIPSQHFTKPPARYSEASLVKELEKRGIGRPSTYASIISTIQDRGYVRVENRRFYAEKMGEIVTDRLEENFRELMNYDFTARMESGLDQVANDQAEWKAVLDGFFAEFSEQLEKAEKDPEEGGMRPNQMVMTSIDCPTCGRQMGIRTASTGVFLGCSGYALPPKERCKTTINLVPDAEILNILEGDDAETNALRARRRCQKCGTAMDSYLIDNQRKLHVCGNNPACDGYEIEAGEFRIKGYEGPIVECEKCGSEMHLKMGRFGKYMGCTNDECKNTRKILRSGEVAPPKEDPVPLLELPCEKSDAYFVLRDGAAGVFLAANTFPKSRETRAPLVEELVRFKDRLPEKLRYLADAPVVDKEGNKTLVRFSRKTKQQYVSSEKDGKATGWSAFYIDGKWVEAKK

[1] = molecular target: T2, Endoribonuclease toxin MazF (Escherichia coli K-12, UniProt P0AE70); test: activation of MazEF endoribonuclease cleavage – biochemical, fluorescence, single-stranded RNA substrate, uHTS hits, dose response (AID 588481); format: functional
T2 sequence (P0AE70 whole entry): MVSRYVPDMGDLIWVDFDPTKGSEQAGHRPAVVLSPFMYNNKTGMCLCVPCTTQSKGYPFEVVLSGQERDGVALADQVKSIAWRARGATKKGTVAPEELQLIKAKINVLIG

[2] = molecular target: T2, Endoribonuclease toxin MazF; test: substrate-only fluorescence increase artefacts – biochemical, single-stranded RNase substrate, counter-screen for MazEF activator project, dose response (AID 588502); format: functional
[3] = molecular target: T3, Polyadenylate-binding protein 1 (Homo sapiens, UniProt P11940); test: MLLE binding blockers, Cy5 peptide tracer – biochemical, fluorescence polarization, Cy5-PAM2 peptide, secondary, miRNA deadenylation inhibitor project, dose response (AID 602260); format: functional; details: read-out: IC50_Mean
T3 sequence (P11940 whole entry, the tested form may be a part): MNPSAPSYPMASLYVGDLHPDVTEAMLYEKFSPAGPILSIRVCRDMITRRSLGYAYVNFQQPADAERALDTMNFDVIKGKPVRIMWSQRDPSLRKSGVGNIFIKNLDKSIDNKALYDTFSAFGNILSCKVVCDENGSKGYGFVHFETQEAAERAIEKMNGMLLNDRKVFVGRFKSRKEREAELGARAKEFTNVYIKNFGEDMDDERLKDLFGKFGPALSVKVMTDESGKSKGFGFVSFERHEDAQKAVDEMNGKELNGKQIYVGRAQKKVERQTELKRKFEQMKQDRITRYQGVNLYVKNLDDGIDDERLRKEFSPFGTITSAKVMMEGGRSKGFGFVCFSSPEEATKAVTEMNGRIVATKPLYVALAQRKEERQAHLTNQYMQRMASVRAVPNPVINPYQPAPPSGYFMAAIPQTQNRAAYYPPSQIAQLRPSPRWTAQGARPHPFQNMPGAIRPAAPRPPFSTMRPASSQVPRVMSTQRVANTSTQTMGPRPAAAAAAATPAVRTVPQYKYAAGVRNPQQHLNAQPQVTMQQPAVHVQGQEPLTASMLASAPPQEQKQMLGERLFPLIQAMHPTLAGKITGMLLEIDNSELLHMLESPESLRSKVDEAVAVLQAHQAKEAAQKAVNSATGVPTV

[4] = molecular target: T3, Polyadenylate-binding protein 1; test: MLLE domain peptide-binding blockers, IC50 – biochemical, fluorescence polarization, FITC-PAM2 peptide, dose response (AID 602259); format: functional; details: read-out: IC50_Mean
Cysteine protease ATG4B = molecular target: T4, Cysteine protease ATG4B (Homo sapiens, UniProt Q9Y4P1); format: functional;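 note: Fluorescence-based dose-response confirmation assay measuring inhibition of ATG4B activity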
T4 sequence (Q9Y4P1 whole entry): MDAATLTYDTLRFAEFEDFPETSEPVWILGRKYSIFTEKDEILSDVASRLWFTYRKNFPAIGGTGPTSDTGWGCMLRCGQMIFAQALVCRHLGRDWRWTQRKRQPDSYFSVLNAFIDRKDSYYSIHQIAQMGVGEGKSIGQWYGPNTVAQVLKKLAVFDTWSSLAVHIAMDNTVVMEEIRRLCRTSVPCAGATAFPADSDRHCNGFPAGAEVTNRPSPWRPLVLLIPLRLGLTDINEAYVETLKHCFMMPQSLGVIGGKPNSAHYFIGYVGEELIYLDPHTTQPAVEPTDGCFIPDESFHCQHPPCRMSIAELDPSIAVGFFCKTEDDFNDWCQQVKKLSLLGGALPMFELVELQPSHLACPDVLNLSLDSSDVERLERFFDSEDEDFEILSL

Phospholipase A2 = Phospholipase A2 (Homo sapiens, UniProt P04054); format: functional;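 note: confirmatory dose-response counterscreen on phospholipase A2, testing hits that came from an ultra-high-throughput screen for ATG4B inhibitors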
Sequence of Phospholipase A2 (P04054 whole entry): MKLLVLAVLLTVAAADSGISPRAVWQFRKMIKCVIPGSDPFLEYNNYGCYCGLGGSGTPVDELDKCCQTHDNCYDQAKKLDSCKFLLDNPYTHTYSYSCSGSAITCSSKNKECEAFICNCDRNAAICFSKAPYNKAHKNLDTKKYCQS

Cytochrome P450 2C9 = Cytochrome P450 2C9 (Homo sapiens, UniProt P11712)
Sequence of Cytochrome P450 2C9 (P11712 whole entry): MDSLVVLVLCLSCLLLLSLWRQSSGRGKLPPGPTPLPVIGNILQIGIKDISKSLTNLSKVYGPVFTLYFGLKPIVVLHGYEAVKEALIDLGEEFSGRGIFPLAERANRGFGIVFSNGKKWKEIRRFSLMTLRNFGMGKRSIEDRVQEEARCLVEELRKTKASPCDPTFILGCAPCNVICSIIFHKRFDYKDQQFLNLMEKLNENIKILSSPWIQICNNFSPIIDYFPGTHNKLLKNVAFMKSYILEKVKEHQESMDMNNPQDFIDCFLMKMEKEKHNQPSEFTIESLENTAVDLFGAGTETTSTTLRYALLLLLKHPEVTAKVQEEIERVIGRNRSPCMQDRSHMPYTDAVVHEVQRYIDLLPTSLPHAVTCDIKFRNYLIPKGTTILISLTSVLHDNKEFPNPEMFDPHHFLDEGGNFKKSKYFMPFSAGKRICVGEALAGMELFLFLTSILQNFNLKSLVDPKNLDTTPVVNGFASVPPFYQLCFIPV

Prothrombin = Prothrombin (Homo sapiens, UniProt P00734); test: Thrombin 1536 HTS Dose Response Confirmation. [Related pubchem assays: 1046 (Thrombin 1536 HTS; hits were confirmed in this assay)]; format: functional
[5] = molecular target: Luciferin 4-monooxygenase (Photinus pyralis, UniProt P08659); test: inhibition of purified Photinus pyralis luciferase – biochemical, luminescence, dose response (AID 1891)
Sequence of Luciferin 4-monooxygenase (P08659 whole entry): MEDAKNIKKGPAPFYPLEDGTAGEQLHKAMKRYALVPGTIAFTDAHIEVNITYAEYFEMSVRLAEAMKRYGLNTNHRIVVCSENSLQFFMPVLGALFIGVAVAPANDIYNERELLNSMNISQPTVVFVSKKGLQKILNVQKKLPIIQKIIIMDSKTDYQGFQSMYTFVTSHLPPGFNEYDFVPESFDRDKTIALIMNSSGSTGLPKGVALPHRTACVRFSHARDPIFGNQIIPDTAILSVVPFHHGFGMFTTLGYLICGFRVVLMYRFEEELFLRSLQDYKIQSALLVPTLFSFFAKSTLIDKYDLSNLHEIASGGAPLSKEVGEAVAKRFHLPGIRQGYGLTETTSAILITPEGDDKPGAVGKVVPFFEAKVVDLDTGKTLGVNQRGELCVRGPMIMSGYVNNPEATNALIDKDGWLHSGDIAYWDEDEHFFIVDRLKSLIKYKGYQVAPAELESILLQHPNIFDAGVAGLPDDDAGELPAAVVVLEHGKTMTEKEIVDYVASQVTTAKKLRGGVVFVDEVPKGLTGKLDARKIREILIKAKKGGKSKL

[6] = Luminescence Cell-Based Dose Confirmation HTS to Identify Inhibitors of Platelet Dense Granule Release. [Related pubchem assays: 1663 (Primary HTS), 1678 (Summary of Project)]; format: functional
Caspase-3 = molecular target: T5, Caspase-3 (Homo sapiens, UniProt P42574); format: functional;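 note: Dose-response selectivity test against caspase-3 for candidate inhibitors of sentrin-specific proteases (SENPs)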
T5 sequence (P42574 whole entry): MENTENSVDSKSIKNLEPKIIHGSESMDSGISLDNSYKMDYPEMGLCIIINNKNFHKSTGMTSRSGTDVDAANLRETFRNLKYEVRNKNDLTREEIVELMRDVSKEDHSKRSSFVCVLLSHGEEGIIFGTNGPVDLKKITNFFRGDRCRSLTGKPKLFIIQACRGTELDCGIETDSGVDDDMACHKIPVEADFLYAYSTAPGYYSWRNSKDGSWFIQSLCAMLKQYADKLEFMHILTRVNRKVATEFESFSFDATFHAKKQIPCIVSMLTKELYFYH

[7] = molecular target: T6, Sentrin-specific protease 7 (Homo sapiens, UniProt Q9BQF6); format: functional;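 note: Luminescence-based dose-response confirmation of ultra-high-throughput screening hits, measuring inhibition of SENP7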
T6 sequence (Q9BQF6 whole entry): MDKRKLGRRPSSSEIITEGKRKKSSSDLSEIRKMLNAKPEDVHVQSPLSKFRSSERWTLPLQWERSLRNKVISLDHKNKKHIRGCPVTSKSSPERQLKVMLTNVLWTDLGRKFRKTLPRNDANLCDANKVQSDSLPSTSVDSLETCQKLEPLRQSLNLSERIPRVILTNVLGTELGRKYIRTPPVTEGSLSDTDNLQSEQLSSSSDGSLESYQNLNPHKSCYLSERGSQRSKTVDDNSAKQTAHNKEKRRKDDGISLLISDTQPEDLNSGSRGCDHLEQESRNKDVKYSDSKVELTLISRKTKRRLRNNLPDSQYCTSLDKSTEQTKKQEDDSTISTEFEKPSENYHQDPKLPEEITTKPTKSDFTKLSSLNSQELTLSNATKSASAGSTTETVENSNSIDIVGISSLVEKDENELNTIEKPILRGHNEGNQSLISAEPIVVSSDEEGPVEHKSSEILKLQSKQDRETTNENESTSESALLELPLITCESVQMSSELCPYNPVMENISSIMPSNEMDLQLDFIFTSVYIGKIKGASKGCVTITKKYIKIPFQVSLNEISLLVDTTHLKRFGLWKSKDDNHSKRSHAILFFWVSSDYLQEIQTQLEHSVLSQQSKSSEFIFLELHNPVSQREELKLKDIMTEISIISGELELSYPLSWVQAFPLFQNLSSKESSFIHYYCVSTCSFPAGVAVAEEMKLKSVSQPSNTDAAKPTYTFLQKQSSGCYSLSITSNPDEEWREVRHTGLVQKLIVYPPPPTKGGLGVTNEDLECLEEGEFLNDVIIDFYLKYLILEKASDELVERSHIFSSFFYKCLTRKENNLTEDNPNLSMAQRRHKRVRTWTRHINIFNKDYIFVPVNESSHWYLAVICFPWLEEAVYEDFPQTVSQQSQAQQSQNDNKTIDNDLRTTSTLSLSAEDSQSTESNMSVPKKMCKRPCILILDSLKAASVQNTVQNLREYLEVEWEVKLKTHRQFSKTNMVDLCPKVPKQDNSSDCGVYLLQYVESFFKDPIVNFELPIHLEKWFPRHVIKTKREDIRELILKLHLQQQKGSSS

[8] = molecular target: T7, Sentrin-specific protease 6 (Homo sapiens, UniProt Q9GZR1); format: functional;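 note: Luminescence-based dose-response confirmatory assay of SENP6 inhibition, following up an ultra-high-throughput screen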
T7 sequence (Q9GZR1 whole entry): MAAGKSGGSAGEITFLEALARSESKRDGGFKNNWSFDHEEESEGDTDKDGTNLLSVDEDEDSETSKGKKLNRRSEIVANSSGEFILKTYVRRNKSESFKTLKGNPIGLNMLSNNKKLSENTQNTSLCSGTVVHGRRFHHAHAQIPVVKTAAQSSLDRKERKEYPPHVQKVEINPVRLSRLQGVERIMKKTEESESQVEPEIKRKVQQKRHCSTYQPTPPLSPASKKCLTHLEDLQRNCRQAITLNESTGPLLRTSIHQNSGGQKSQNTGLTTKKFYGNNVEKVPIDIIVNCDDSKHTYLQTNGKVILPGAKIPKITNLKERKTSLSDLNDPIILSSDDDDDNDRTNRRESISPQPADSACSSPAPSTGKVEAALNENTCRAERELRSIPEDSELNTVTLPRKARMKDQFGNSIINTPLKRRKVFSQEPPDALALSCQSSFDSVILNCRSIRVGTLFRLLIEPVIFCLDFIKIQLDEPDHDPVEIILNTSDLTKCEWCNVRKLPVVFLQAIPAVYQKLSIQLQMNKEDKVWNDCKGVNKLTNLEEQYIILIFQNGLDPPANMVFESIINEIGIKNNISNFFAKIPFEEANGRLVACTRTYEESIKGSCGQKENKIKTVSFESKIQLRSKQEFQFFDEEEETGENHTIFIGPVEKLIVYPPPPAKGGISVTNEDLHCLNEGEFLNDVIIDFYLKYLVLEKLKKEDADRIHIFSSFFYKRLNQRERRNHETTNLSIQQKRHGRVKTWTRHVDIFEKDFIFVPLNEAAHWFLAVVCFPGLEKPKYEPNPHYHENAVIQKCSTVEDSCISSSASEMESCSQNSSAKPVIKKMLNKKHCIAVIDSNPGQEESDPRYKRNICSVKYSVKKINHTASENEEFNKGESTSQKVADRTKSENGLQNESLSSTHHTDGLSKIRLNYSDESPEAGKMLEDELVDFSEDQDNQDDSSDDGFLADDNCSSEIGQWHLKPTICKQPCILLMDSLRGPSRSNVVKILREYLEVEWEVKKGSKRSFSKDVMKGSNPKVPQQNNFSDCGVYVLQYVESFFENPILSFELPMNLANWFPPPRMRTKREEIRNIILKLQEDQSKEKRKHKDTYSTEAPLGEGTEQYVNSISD

[9] = molecular target: T8, Sentrin-specific protease 8 (Homo sapiens, UniProt Q96LD8); format: functional;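 note: luminescence read-out of SENP8 inhibition, dose-response confirmation following an ultra-high-throughput screen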
T8 sequence (Q96LD8 whole entry): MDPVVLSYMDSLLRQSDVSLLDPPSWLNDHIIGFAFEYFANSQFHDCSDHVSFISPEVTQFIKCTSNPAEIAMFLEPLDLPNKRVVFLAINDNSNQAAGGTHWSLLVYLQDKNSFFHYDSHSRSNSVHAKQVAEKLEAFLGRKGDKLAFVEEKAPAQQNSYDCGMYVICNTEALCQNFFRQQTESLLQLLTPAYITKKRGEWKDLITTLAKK

[10] = molecular target: Heat shock protein HSP 90-alpha (Homo sapiens, UniProt P07900); format: functional, organism-based
Beta-galactosidase = Beta-galactosidase (Escherichia coli, UniProt Q8VNN2); test: PubChem AID 485352; format: functional
Sequence of Beta-galactosidase (Q8VNN2 whole entry): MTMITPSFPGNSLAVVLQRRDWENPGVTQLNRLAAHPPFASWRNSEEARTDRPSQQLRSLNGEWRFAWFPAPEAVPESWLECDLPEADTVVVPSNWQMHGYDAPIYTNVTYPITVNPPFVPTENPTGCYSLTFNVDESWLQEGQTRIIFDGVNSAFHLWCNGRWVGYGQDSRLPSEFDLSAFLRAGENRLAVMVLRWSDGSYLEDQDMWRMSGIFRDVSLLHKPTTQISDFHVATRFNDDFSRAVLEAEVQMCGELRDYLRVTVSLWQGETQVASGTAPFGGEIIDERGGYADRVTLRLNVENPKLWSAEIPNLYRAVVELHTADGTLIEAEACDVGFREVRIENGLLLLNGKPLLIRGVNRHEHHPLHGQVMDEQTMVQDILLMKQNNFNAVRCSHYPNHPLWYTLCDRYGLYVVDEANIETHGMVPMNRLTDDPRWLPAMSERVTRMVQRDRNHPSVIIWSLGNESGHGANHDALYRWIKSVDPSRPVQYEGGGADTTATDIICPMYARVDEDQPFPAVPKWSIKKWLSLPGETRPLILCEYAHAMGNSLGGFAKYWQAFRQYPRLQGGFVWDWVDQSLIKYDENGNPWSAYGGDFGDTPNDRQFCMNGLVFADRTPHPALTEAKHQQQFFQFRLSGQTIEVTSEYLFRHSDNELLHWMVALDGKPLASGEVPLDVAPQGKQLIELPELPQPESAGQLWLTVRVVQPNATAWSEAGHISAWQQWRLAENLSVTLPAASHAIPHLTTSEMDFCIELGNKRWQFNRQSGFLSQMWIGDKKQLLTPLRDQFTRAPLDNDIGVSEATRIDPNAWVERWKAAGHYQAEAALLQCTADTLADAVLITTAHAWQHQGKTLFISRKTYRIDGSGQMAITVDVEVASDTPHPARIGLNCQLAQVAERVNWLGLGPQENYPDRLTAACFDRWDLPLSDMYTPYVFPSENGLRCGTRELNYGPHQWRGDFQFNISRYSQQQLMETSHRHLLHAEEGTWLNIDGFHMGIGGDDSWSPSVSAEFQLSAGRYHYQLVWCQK

[11] = molecular target: T9, Type-1 angiotensin II receptor (Homo sapiens, UniProt P30556); test: antagonism of angiotensin II type 1 receptor – cell-based, uHTS hits, selectivity assay for APJ receptor antagonist project, dose response (AID 463214); format: functional;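 note: antagonist potency against angiotensin II stimulated AT1 response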
T9 sequence (P30556 whole entry): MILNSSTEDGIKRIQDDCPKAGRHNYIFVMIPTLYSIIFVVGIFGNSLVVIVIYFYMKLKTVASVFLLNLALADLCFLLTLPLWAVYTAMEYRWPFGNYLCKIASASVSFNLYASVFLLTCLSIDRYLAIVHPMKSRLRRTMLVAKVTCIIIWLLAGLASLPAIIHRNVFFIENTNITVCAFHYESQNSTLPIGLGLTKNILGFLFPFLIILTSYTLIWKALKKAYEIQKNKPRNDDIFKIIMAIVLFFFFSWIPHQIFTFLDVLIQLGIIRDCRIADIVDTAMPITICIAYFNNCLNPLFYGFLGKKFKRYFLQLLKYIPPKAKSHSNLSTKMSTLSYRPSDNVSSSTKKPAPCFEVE

## COc1cc2c(cc1OC)C1=NC(=O)CN1C(SCc1ccc(C)cc1)=N2
DNA topoisomerase
  AC50: 13.8 µM (active)

## CCOC(=O)[C@H]1[C@H]2COc3ccc(Br)cc3[C@H]2N2C(=O)CN(Cc3ccc(C)cc3)C(=O)[C@@]12C
[1]
  EC50: 4.72 µM (active)
[2]
  EC50: > 99 µM (inactive)
[3]
  IC50: > 66 µM (inactive)
[4]
  IC50: 49.1 µM (inactive)

## C=CCn1c(SCc2cc(C(C)=O)ccc2OCC)nc2ccccc2c1=O
Cysteine protease ATG4B
  IC50: 5.1 µM (active)
Phospholipase A2
  IC50: 1.3 µM (active)

## O=C(NCc1cccc(C(F)(F)F)c1)c1cc(Cl)cc(Cl)c1
Cysteine protease ATG4B
  IC50: 41 µM (inactive)
Phospholipase A2
  IC50: 2.38 µM (active)
Cytochrome P450 2C9
  AC50: inconclusive

## CCCCCn1c(SCCC(C)C)nc2c1c(=O)[nH]c(=O)n2C
DNA topoisomerase
  AC50: > 38 µM (inactive)

## COc1ccc(C(=O)n2nc(-c3ccco3)nc2SC)cc1OC
Prothrombin
  IC50: 0.204 µM (active)
[1]
  EC50: > 99 µM (inactive)
[2]
  EC50: 45.8 µM (inactive)

## O=C(NCc1cccc(C(F)(F)F)c1)N1CCN(S(=O)(=O)c2ccccc2F)CC1
Cysteine protease ATG4B
  IC50: 12.5 µM (active)
Phospholipase A2
  IC50: 7.61 µM (active)

## COc1ccccc1/N=C/c1c(O)oc2ccccc2c1=O
[5]
  EC50: 1.3 µM (active)
[6]
  EC50: > 112 µM (not active)
Caspase-3
  IC50: > 100 µM (inactive)
[7]
  IC50: 2.87 µM (active)
[8]
  IC50: > 100 µM (inactive)
[9]
  IC50: > 100 µM (inactive)

## Oc1ccc(Cl)cc1/C=C/c1ccc2cccc(O)c2n1
Prothrombin
  IC50: > 50 µM (not active)
[1]
  EC50: 44.8 µM (inactive)
[10]
  AC50: 3.87 µM (active)
[2]
  EC50: > 99 µM (inactive)

## Cc1ccccc1NCC(=O)c1ccc(Br)cc1
Beta-galactosidase
  EC50: > 40 µM (inactive)
[11]
  IC50: 8.62 µM (active)
DNA topoisomerase
  AC50: 1.96 µM (active)
